# Assays:
# [1] = system: isolates of Aspergillus species; details: cited from earlier work
# [2] = biological target: lanosterol 14α—demethylase; details: target enzyme in the fungus; read-out: IC50 against lanosterol 14α-demethylase; cited from earlier work
# Cryptococcus neoformans = assay: In vitro MIC, NCCLS M27A, Cryptococcus neoformans; format: cell-based; set-up: MIC, C. neoformans I: unit not given beside the values; MIC, C. neoformans M 106: unit not given here
# Candida = assay: In vitro MIC, NCCLS M27A, Candida species; format: cell-based; set-up: MIC, Candida albicans 1.549 / MIC, Candida albicans Y-01-19 / MIC, C. krusei 766-1 / MIC, C. krusei Q. C / MIC, Candida tropicalis ATCC / MIC, C. glabrata 90030: unit not given beside the values; MIC, Candida albicans A 26 / MIC, C. parapsilosis Q. C.: unit not given here
# A. fumigatus s 1008 = assay: In vitro MIC, NCCLS M38P broth method (RPMI 1640/MOPS pH7), Aspergillus fumigatus; format: cell-based; details: A. fumigatus strain 1008
# Histoplasma capsulatum = format: cell-based
Structure (SMILES),minimum inhibitory concentration (MIC) [1],IC50 [2],"MIC, C. neoformans I (Cryptococcus neoformans; C. neoformans strain I)","MIC, C. neoformans M 106 (Cryptococcus neoformans; C. neoformans strain M 106)","MIC, C. glabrata 90030 (Candida; C. glabrata strain 90030)","MIC, C. krusei 766-1 (Candida; C. krusei strain 766-1)","MIC, C. krusei Q. C (Candida; C. krusei strain Q. C)","MIC, C. parapsilosis Q. C. (Candida; C. parapsilosis strain Q. C.)","MIC, Candida albicans 1.549 (Candida; Candida albicans strain 1.549)","MIC, Candida albicans A 26 (Candida; Candida albicans strain A 26)","MIC, Candida albicans Y-01-19 (Candida; Candida albicans strain Y-01-19)","MIC, Candida tropicalis ATCC (Candida; Candida tropicalis ATCC)","MIC, A. fumigatus 1008 (A. fumigatus s 1008)","MIC, H. capsulatum (Histoplasma capsulatum)",melting point
OC(Cn1cncn1)(Cn1cncn1)c1ccc(F)cc1F [fluconazole],400 µg/mL,4.8 µM,–,–,–,–,–,–,–,–,–,–,–,–,–
"O=c1n(-c2ccc(N3CCN(c4ccc(F)cc4F)CC3)cc2)cnn1CC(O)(Cn1cncn1)c1ccc(F)cc1F (stereo not drawn) [Compound 52, 2-[2-(2,4-Difluorophenyl)-2-hydroxy-3-(1H-1,2,4-triazol-1-yl)propyl]-4-{4-[4-(2,4-difluorophenyl)-1-piperazinyl]phenyl}-3-(2H,4H)-1,2,4-triazolone]",–,–,<0.03,<0.03,1.00,4.00,0.50,<0.03,0.06,<0.03,0.12,<0.03,>16,< 0.03 µg/mL,157 to 158 °C
